Assay results taken from patent EP1285918A1, “C7 Ester substituted taxanes as antitumor agents” (Florida State University Research Foundation, Inc., priority 2001, dated 2003).
Like-named read-outs stand apart in the source and are kept apart here.

What was measured:
[1] = system: MX-1 Human Breast Carcinoma Xenograft; experiment: In vivo evaluation of oral administration of antitumor compounds against MX-1 human breast carcinoma xenograft (Example 25)
Text: This study investigated the efficacy of various antitumor compounds when administered orally against the MX-1 human breast carcinoma xenograft.
The study was terminated on Day 63.

[2] = system: A2780 Human Ovarian Carcinoma Xenografts; details: for MDS (n) / Complete Response / Partial Response / Stable Disease / Survivors / Toxic Deaths / Mean Score: i.v. qd x 1 (mg/kg: Taxol 24, 1351 75.3, 1401 107.6, 1418 107.6, Taxotere 70); for MDS (n): 2.0 g cut-off; for MDS (n) / Complete Response / Partial Response / Stable Disease / Survivors / Toxic Deaths: Day 60; for Mean Score: tumor score 1 to 10, group mean; for survival extension compared to Group 1 controls: i.v. qd x 1 (mg/kg: Taxol 24, 1418 107.6, Taxotere 70)
Protocol: Other antitumor compounds were similarly formulated. […] The dosing volume was 0.3 ml per 20 g mouse.
Female NCr-nude mice (implanted subcutaneously with 1 mm^3 A2780 ovarian carcinoma fragments in the flank) were sorted into treatment groups of five mice each, except for the Taxotere treatment group including six mice. […] Dosing was initiated on Day 1. The antitumor compounds were given i.v. at an estimated maximum tolerated dose (MTD) appropriate for each agent on a qd x 1 schedule (single administration of compound). […] Taxotere was given i.v. on a qd x 1 schedule at a dose of 70 mg/kg. The vehicle was administered i.v. to control mice in Group 1 on the qd x 1 schedule. Treatment groups are detailed in Table 7. The study was terminated on Day 60.
(§1) The results are summarized in Table 8 and include mean days of survival (MDS), number of toxic deaths, number of survivors, number of complete or partial responses, and number with stable disease. The mean days of survival is the number of days after which a neoplasm reached a size of 2.0 g and the animal was euthanized. A complete response is obtained if the tumor is not palpable at the end of the study. A partial response is obtained if the tumor shrinks to a size smaller than its size on Day 1 of the study.

SK-MES carcinoma = experiment: In vivo evaluation against SK-MES human lung carcinoma xenograft, i.v. (Example 11)
Protocol: (§2) Two antitumor compounds were formulated for an i.v. dosing regime prepared in the following vehicle: 10% ethanol, 10% Cremophor and 80% isotonic saline. […] Other compounds were formulated similarly.
(§3) The MTDs for the antitumor compounds were calculated from earlier single dose data for mice receiving i.v. administration of these compounds. […] Vehicle control animals were dosed twice intravenously with half the total volume being given separated by one hour. The study was terminated at Day 60.
as §1, with “1” for “8”, “1.5” for “2.0”
(§4) A tumor scoring system was designed to provide a more quantitative ranking of efficacy (therapeutic potential) among the antitumor agents evaluated against the different human solid tumor xenografts. Each mouse in a study was given a score of from 1 to 10 at the end of the study. The scores can be summarized as follows:
(§5) The individual score for each mouse was averaged into a mean score for each treatment group. […]

[3] = system: MX-1 Human Breast Carcinoma Xenograft; details: for Complete Responses / Partial Responses / Stable Disease / Toxic Deaths / Survivors / MDS (n): 6 mice/group, study end Day 60; for MDS (n): days until tumor reached 1.5 g
Protocol: The antitumor compounds were prepared in the following vehicle: 5% ethanol, 5% Cremophor and 90% isotonic saline.
Female Nu/Nu mice (12-13 weeks of age; implanted with 1 mm^3 MX-1 human breast carcinoma fragments in the flank) were sorted into treatment groups of six mice each (MX-1 tumor size ranges and group mean MX-1 tumor size ranges were 56-138 mg and 68-74 mg, respectively). […] All treatments were administered as a single oral bolus on Day 1, and the study was terminated on Day 60.
The mean days of survival is the number of days after which an MX-1 neoplasm reached a size of 1.5 g and the animal was euthanized. A complete response is obtained if the tumor is not palpable at the end of the study. A partial response is obtained if the tumor shrinks to a size smaller than its size on Day 1 of the study.

[4] = system: HCT116 human colon carcinoma xenograft; details: 10 mice/group, study end Day 60
Text: Six groups consisting of ten mice in each group were made up of female Nu/Nu mice (8-9 weeks of age; implanted with 1 mm^3 HCT116 human […] carcinoma fragments in the flank). Another six groups consisting of ten mice in each group were made up of male Nu/Nu mice (6-7 weeks of age; implanted with 1 mm^3 HCT116 human […] carcinoma fragments in the flank). […] The study was terminated on Day 60.
The results are summarized in Table 19 for the female mice and Table 20 for the male mice. Included are mean days of survival (MDS), number of toxic deaths, number of survivors, number of complete or partial responses, and number with stable disease. The mean days of survival is the number of days after which an […] neoplasm reached a size of 1.5 g and the animal was euthanized. A complete response is obtained if the tumor is not palpable at the end of the study. A partial response is obtained if the tumor shrinks to a size smaller than its size on Day 1 of the study. […]

[5] = system: NCI-H1299 (H1299) carcinoma; details: i.v. split dose qd x 1 at MTD (Taxol 36 mg/kg, 1393 72.1 mg/kg), 6 mice/group, Day 60
Protocol: as §2, §3
as §1, with “1” for “8”, “1.5” for “2.0”
as §4, §5
The treatment protocol for the H1299 test was identical to the SK-MES test protocol. […]

[6] = 107 mg/kg single oral bolus, 6 mice/group, study end Day 63
[7] = i.v. split dose qd x 1 at MTD (Taxol 36 mg/kg, 1393 72.1 mg/kg), 6 mice/group, Day 60
[8] = 73.4 mg/kg single oral bolus Day 1
[9] = 105 mg/kg single oral bolus Day 1
[10] = female mice, 104 mg/kg i.v. in 5% ethanol and 95% Liposyn II (Group 4)
[11] = female mice, 104 mg/kg i.v. in 5% ethanol and 95% Liposyn III (Group 5)
[12] = female mice, 104 mg/kg oral in 5% ethanol, 5% Cremophor and 90% isotonic saline (Group 6)
[13] = male mice, 73 mg/kg i.v. in 5% ethanol and 95% Liposyn II (Group 4)
[14] = male mice, 73 mg/kg i.v. in 5% ethanol and 95% Liposyn III (Group 5)
[15] = male mice, 73 mg/kg oral in 5% ethanol, 5% Cremophor and 90% isotonic saline (Group 6)
[16] = 70 mg/kg single oral bolus Day 1
[17] = 100 mg/kg single oral bolus Day 1

CCC(=O)O[C@H]1C[C@H]2OC[C@@]2(OC(C)=O)[C@H]2[C@H](OC(=O)c3ccccc3)[C@]3(O)C[C@H](OC(=O)[C@H](O)[C@H](C=C(C)C)NC(=O)OC(C)(C)C)C(C)=C([C@@H](O)C(=O)[C@]12C)C3(C)C [Compound 1351]
Maximum Weight Loss (Day) ([1]; 107 mg/kg single oral bolus, 6 mice/group, on Day 5): -9.1% (5)
Partial Response [1, 6]: 0
Stable Disease [1, 6]: 1
Toxic Deaths [1, 6]: 0
Mean Day of Survival (n) ([1]; 107 mg/kg single oral bolus, 6 mice/group, study end Day 63, days until tumor reached 1.5 g): 46.2 ± 5.1 (5) days
survival compared to vehicle control mice ([1]; MX-1, single oral bolus, doses of Table 22, Day 63): significant survival extensions
Complete Response ([1]; po, 107 mg/kg, 1512 h): 0
total response rate ([2]; 1351 75.3 mg/kg i.v. qd x 1): at least 20%
MDS (n) [2]: 23.0 ± 1.7 (4) days
Complete Response [2]: 0
Partial Response [2]: 1
Stable Disease [2]: 0
Survivors [2]: 1
Toxic Deaths [2]: 0
Mean Score [2]: 3.6 ± 1.1

CCC(=O)O[C@H]1C[C@H]2OC[C@@]2(OC(C)=O)[C@H]2[C@H](OC(=O)c3ccccc3)[C@]3(O)C[C@H](OC(=O)[C@H](O)[C@@H](NC(=O)OC(C)(C)C)c4ccco4)C(C)=C([C@@H](O)C(=O)[C@]12C)C3(C)C [Compound 1393, 3'-Desphenyl-3'-(2-furyl)-7-propionyl taxotere]
complete response rate (SK-MES carcinoma; 1393 72.1 mg/kg i.v.): 100%
days between which complete responses occurred (SK-MES carcinoma; 1393 72.1 mg/kg i.v.): 14 to 24 days
Complete Response (SK-MES carcinoma; [7]): 6
Partial Response (SK-MES carcinoma; [7]): 0
Stable Disease (SK-MES carcinoma; [7]): 0
Toxic Deaths (SK-MES carcinoma; [7]): 0
Mean Score (SK-MES carcinoma; i.v. split dose qd x 1 at MTD (Taxol 36 mg/kg, 1393 72.1 mg/kg), tumor score 1 to 10 per mouse, group mean): 10+0
Complete Responses [3, 8]: 4
Partial Responses [3, 8]: 0
Stable Disease [3, 8]: 1
Toxic Deaths [3, 8]: 1
Complete Responses [3, 9]: 5
Partial Responses [3, 9]: 0
Stable Disease [3, 9]: 0
Toxic Deaths [3, 9]: 0
Partial Responses [4, 10]: 3
Stable Disease [4, 10]: 2
Toxic Deaths [4, 10]: 0
Complete Responses [4, 11]: 5
Partial Responses [4, 11]: 3
Stable Disease [4, 11]: 2
Toxic Deaths [4, 11]: 0
Complete Responses [4, 12]: 4
Partial Responses [4, 12]: 3
Stable Disease [4, 12]: 2
Toxic Deaths [4, 12]: 0
Complete Responses [4, 13]: 7
Partial Responses [4, 13]: 1
Stable Disease [4, 13]: 2
Toxic Deaths [4, 13]: 0
Complete Responses [4, 14]: 6
Partial Responses [4, 14]: 0
Stable Disease [4, 14]: 2
Toxic Deaths ([4]; male mice, 73 mg/kg i.v. in 5% ethanol and 95% Liposyn III (Group 5), footnote: one death due to an unknown reason): 2^a
Complete Responses [4, 15]: 6
Partial Responses [4, 15]: 3
Stable Disease [4, 15]: 1
Toxic Deaths [4, 15]: 0
Toxic Deaths [5]: 2

CCC(=O)O[C@H]1C[C@H]2OC[C@@]2(OC(C)=O)[C@H]2[C@H](OC(=O)c3ccccc3)[C@]3(O)C[C@H](OC(=O)[C@H](O)[C@@H](NC(=O)OC(C)(C)C)c4ccoc4)C(C)=C([C@@H](O)C(=O)[C@]12C)C3(C)C [Compound 1401]
MDS (n) [2]: 32.1 ± 3.9 (4) days
Complete Response [2]: 0
Partial Response [2]: 0
Stable Disease [2]: 1
Survivors [2]: 1
Toxic Deaths [2]: 0
Mean Score [2]: 3.4 ± 0.4

CCC(=O)O[C@H]1C[C@H]2OC[C@@]2(OC(C)=O)[C@H]2[C@H](OC(=O)c3ccccc3)[C@]3(O)C[C@H](OC(=O)[C@H](O)[C@@H](NC(=O)OC(C)(C)C)c4cccs4)C(C)=C([C@@H](O)C(=O)[C@]12C)C3(C)C [Compound 1418]
MDS (n) [2]: 32.0 ± 2.3 (5) days
Complete Response [2]: 0
Partial Response [2]: 0
Stable Disease [2]: 0
Survivors [2]: 0
Toxic Deaths [2]: 0
Mean Score [2]: 3 ± 0
survival extension compared to Group 1 controls [2]: approximately 300%

CC(=O)O[C@@]12CO[C@@H]1C[C@H](O)[C@@]1(C)C(=O)[C@H](O)C3=C(C)[C@@H](OC(=O)[C@H](O)[C@@H](NC(=O)OC(C)(C)C)c4ccccc4)C[C@@](O)([C@@H](OC(=O)c4ccccc4)[C@H]21)C3(C)C [docetaxel, reference compound]
Complete Responses [3, 16]: 0
Partial Responses [3, 16]: 0
Stable Disease [3, 16]: 0
Survivors [3, 16]: 0
Toxic Deaths [3, 16]: 0
MDS (n) [3, 16]: 27.9 ± 4.3 (6) days
Complete Responses [3, 17]: 0
Partial Responses [3, 17]: 1
Stable Disease [3, 17]: 0
Survivors [3, 17]: 1
Toxic Deaths [3, 17]: 0
MDS (n) [3, 17]: 27.1 ± 3.5 (5) days
Partial Response ([3]; MX-1, single oral bolus, Taxol 40 and 28 mg/kg groups together, Taxotere 100 and 70 mg/kg groups together, Day 60): One
MDS (n) [2]: 27.4 ± 3.5 (5) days
Complete Response [2]: 0
Partial Response [2]: 0
Stable Disease [2]: 0
Survivors [2]: 0
Toxic Deaths [2]: 0
Mean Score [2]: 2.5 ± 0.3
survival extension compared to Group 1 controls [2]: 134%
